From patent US10925856B2, “Methods and compositions involving bucindolol for the treatment of atrial fibrillation” (priority 2018, dated 2021)

How the values were obtained:
NT-proBNP = assay: Plasma NT-proBNP (electrochemiluminescence immunoassay)
[1] = Systolic blood pressure and heart rate by scheduled visit; format: in vivo, human
From the text: Block is defined as the first of any of the following: 1) 3rd degree heart block (complete heart block); 2) any 2nd degree heart block with the presence of symptoms attributable to, and temporally correlated with the occurrence of heart block which include any of the following: Near-fainting or fainting (syncope)/Dizziness; Weakness or Fatigue; Shortness of breath; Chest pain; or 3) 2nd or 3rd degree heart block requiring implantation of a permanent pacemaker (with or without defibrillator). • Data source: • CVEVENT and AE eCRF forms. • Overall incidence and severity of treatment-emergent AEs/SAEs over time during the Total Study Period. Also events associated with device implantation. […] The AEs of special interest will be tabulated according to the following characteristics. • Development of treatment-emergent neoplastic conditions. • Progression or worsening of pre-study neoplastic conditions. • Progression or worsening of treatment-emergent neoplastic conditions. • Data source: • AE, NEOPLHX and NEOPLAS eCRF forms. • Clinical Chemistry and Hematology. • Visit collection: screen, start of follow-up Week 0 (protocol versions 1 and 2), Week 4 (protocol versions 3 and 4), Week 12 (protocol versions 3 and 4), Week 24, every 24 weeks during extension, end of treatment and end of study. […] Randomization Visit measurement prior to first dose will serve as the baseline. Will be analyzed at Week 0, 4, 12 and 24 visits as well as end of treatment and end of study. • Change from baseline to each analysis visit will be calculated and analyzed with descriptive statistics. • The numbers and percentages of patients with QTc increase from baseline exceeding 60 ms at any time point during the study. • Data source: • ECG eCRF form. • Vital signs and weight (data source: VITALS eCRF form). • Measured at every in-clinic visit. Randomization Visit measurement prior to first dose will serve as the baseline. Will be analyzed at Week 0, 4, 12 and 24 visits as well as end of treatment and end of study. • Change from baseline to each analysis visit will be calculated and analyzed with descriptive statistics. • Data source: • VITALS eCRF form. • Proportion of patients attaining target study drug dose during the Drug Titration Period. Will be calculated for all patients, those receiving β-blocker therapy prior to randomization and those not previously receiving β-blocker therapy. • Data Sources: • VISREC and DRUGLOG eCRF forms.

[2] = Europe excluding Hungary (n = 48)
[3] = change from baseline, Canada (n = 59)
[4] = change from baseline, Entire Cohort (n = 267)
[5] = change from baseline, Europe excluding Hungary (n = 48)
[6] = change from baseline, Hungary (n = 33)
[7] = change from baseline, U.S. (n = 127)

With COCCc1ccc(OCC(O)CNC(C)C)cc1 (centres unmarked) [metoprolol, metoprolol succinate, reference compound] the “NT-proBNP, Week 4 Mean” value (NT-proBNP; Canada) was 1715 pg/mL, the “NT-proBNP, Week 4 Median” value (NT-proBNP; Canada) was 1067 pg/mL and the “NT-proBNP, ΔWeek 4 Mean ± SEM” value (NT-proBNP; Canada) was -91 pg/mL. For the same compound, the “NT-proBNP, ΔWeek 4 Median” value (NT-proBNP; Canada) was -101 pg/mL, the “NT-proBNP, Baseline Mean ± SD” value (NT-proBNP; Canada (n = 59)) was 1646 ± 2303 pg/mL and the “NT-proBNP, Baseline Median” value (NT-proBNP; Canada (n = 59)) was 913 pg/mL. The “NT-proBNP, Week 12 Mean ± SD” value (NT-proBNP; Canada (n = 59)) was 1338 ± 1504 pg/mL, the “NT-proBNP, Week 12 Median” value (NT-proBNP; Canada (n = 59)) was 845 pg/mL and the “NT-proBNP, Week 24 Mean ± SD” value (NT-proBNP; Canada (n = 59)) was 1382 ± 1974 pg/mL. The “NT-proBNP, Week 24 Median” value (NT-proBNP; Canada (n = 59)) was 623 pg/mL, the “NT-proBNP, Week 4 Mean” value (NT-proBNP; Entire Cohort) was 1212 pg/mL and the “NT-proBNP, Week 4 Median” value (NT-proBNP; Entire Cohort) was 792 pg/mL. The “NT-proBNP, ΔWeek 4 Mean ± SEM” value (NT-proBNP; Entire Cohort) was -50 pg/mL, the “NT-proBNP, ΔWeek 4 Median” value (NT-proBNP; Entire Cohort) was -35 pg/mL and the “NT-proBNP, Baseline Median” value (NT-proBNP; Entire Cohort (n = 267)) was 861 pg/mL. The “NT-proBNP, Week 12 Mean ± SD” value (NT-proBNP; Entire Cohort (n = 267)) was 1134 ± 1197 pg/mL, the “NT-proBNP, Week 12 Median” value (NT-proBNP; Entire Cohort (n = 267)) was 652 pg/mL and the “NT-proBNP, Week 24 Mean ± SD” value (NT-proBNP; Entire Cohort (n = 267)) was 1334 ± 1732 pg/mL. For the same compound, the “NT-proBNP, Week 24 Median” value (NT-proBNP; Entire Cohort (n = 267)) was 661 pg/mL, the “NT-proBNP, Week 4 Mean” value (NT-proBNP; Europe excluding Hungary) was 820 pg/mL and the “NT-proBNP, Week 4 Median” value (NT-proBNP; Europe excluding Hungary) was 433 pg/mL. For the same compound, the “NT-proBNP, ΔWeek 4 Mean ± SEM” value (NT-proBNP; Europe excluding Hungary) was -117 pg/mL, the “NT-proBNP, ΔWeek 4 Median” value (NT-proBNP; Europe excluding Hungary) was -93 pg/mL and the “NT-proBNP, Baseline Mean ± SD” value (NT-proBNP; [2]) was 883 ± 880 pg/mL. For the same compound, the “NT-proBNP, Baseline Median” value (NT-proBNP; [2]) was 521 pg/mL, the “NT-proBNP, Week 12 Mean ± SD” value (NT-proBNP; [2]) was 867 ± 885 pg/mL and the “NT-proBNP, Week 12 Median” value (NT-proBNP; [2]) was 526 pg/mL. The “NT-proBNP, Week 24 Mean ± SD” value (NT-proBNP; [2]) was 1108 ± 962 pg/mL, the “NT-proBNP, Week 4 Mean” value (NT-proBNP; Hungary) was 812 pg/mL and the “NT-proBNP, Week 4 Median” value (NT-proBNP; Hungary) was 803 pg/mL. For the same compound, the “NT-proBNP, ΔWeek 4 Mean ± SEM” value (NT-proBNP; Hungary) was -11 pg/mL, the “NT-proBNP, ΔWeek 4 Median” value (NT-proBNP; Hungary) was -40 pg/mL and the “NT-proBNP, Baseline Mean ± SD” value (NT-proBNP; Hungary (n = 33)) was 781 ± 458 pg/mL. For the same compound, the “NT-proBNP, Baseline Median” value (NT-proBNP; Hungary (n = 33)) was 785 pg/mL, the “NT-proBNP, Week 12 Mean ± SD” value (NT-proBNP; Hungary (n = 33)) was 864 ± 876 pg/mL and the “NT-proBNP, Week 12 Median” value (NT-proBNP; Hungary (n = 33)) was 593 pg/mL. The “NT-proBNP, Week 24 Mean ± SD” value (NT-proBNP; Hungary (n = 33)) was 1150 ± 784 pg/mL, the “NT-proBNP, Week 24 Median” value (NT-proBNP; Hungary (n = 33)) was 1019 pg/mL and the “NT-proBNP, Week 4 Mean” value (NT-proBNP; U.S.) was 1227 pg/mL. The “NT-proBNP, Week 4 Median” value (NT-proBNP; U.S.) was 831 pg/mL, the “NT-proBNP, ΔWeek 4 Mean ± SEM” value (NT-proBNP; U.S.) was -14 pg/mL and the “NT-proBNP, ΔWeek 4 Median” value (NT-proBNP; U.S.) was -27 pg/mL. The “NT-proBNP, Baseline Mean ± SD” value (NT-proBNP; U.S. (n = 127)) was 1499 ± 2033 pg/mL, the “NT-proBNP, Baseline Median” value (NT-proBNP; U.S. (n = 127)) was 982 pg/mL and the “NT-proBNP, Week 12 Mean ± SD” value (NT-proBNP; U.S. (n = 127)) was 1224 ± 1240 pg/mL. For the same compound, the “NT-proBNP, Week 12 Median” value (NT-proBNP; U.S. (n = 127)) was 661 pg/mL, the “NT-proBNP, Week 24 Mean ± SD” value (NT-proBNP; U.S. (n = 127)) was 1374 ± 1839 pg/mL and the “NT-proBNP, Week 24 Median” value (NT-proBNP; U.S. (n = 127)) was 547 pg/mL. For the same compound, the “NT-proBNP, ΔWeek 12 Mean ± SEM” value (NT-proBNP; [3]) was -482 ± 355 pg/mL, the “NT-proBNP, ΔWeek 12 Median” value (NT-proBNP; [3]) was -36 pg/mL and the “NT-proBNP, ΔWeek 24 Mean ± SEM” value (NT-proBNP; [3]) was -489 ± 361 pg/mL. The “NT-proBNP, ΔWeek 24 Median” value (NT-proBNP; [3]) was -106 pg/mL, the “NT-proBNP, ΔWeek 12 Mean ± SEM” value (NT-proBNP; [4]) was -135 ± 124 pg/mL and the “NT-proBNP, ΔWeek 12 Median” value (NT-proBNP; [4]) was -50 pg/mL. The “NT-proBNP, ΔWeek 24 Median” value (NT-proBNP; [4]) was -100 pg/mL, the “NT-proBNP, ΔWeek 12 Mean ± SEM” value (NT-proBNP; [5]) was -70 ± 184 pg/mL and the “NT-proBNP, ΔWeek 12 Median” value (NT-proBNP; [5]) was -20 pg/mL. For the same compound, the “NT-proBNP, ΔWeek 24 Mean ± SEM” value (NT-proBNP; [5]) was -133 ± 153 pg/mL, the “NT-proBNP, ΔWeek 24 Median” value (NT-proBNP; [5]) was -101 pg/mL and the “NT-proBNP, ΔWeek 12 Mean ± SEM” value (NT-proBNP; [6]) was “+45 ± 190 pg/ml”. For the same compound, the “NT-proBNP, ΔWeek 12 Median” value (NT-proBNP; [6]) was “+75 pg/ml”, the “NT-proBNP, ΔWeek 24 Mean ± SEM” value (NT-proBNP; [6]) was “+201 ± 219 pg/ml” and the “NT-proBNP, ΔWeek 24 Median” value (NT-proBNP; [6]) was “+150 pg/ml”. For the same compound, the “NT-proBNP, ΔWeek 12 Mean ± SEM” value (NT-proBNP; [7]) was -63 ± 190 pg/mL, the “NT-proBNP, ΔWeek 12 Median” value (NT-proBNP; [7]) was -99 pg/mL and the “NT-proBNP, ΔWeek 24 Mean ± SEM” value (NT-proBNP; [7]) was -158 ± 258 pg/mL. The “NT-proBNP, ΔWeek 24 Median” value (NT-proBNP; [7]) was -135 pg/mL, the “NT-proBNP, ΔWeek 4 Median” value (NT-proBNP; change from baseline, entire cohort) was -35 pg/mL and the NT-proBNP decrease (NT-proBNP; end of the 24-week follow-up period, U.S.) was 20%. For the same compound, the Heart rate reduction ([1]; 4, 12 and 24 weeks) was “greater heart rate reduction”, the “Heart Rate, Baseline Mean ± SEM” value ([1]; in vivo) was 76.0 ± 1.5 bpm and the “Heart Rate, Baseline Min, Max” value ([1]; in vivo) was 43.0, 119. The “Systolic Blood Pressure, Baseline Mean ± SEM” value ([1]; in vivo) was 121.8 ± 1.4 mmHg and the “Systolic Blood Pressure, Baseline Min, Max” value ([1]; in vivo) was 90.0, 149.
